Legend:
[1] = test system: Caco-2; experiment: MTT assay; format: cell-based, human; settings: for IC50: Homo sapiens
Method: Human cancer cell lines (MDA-MB-231, LNCaP, Caco-2) and a human healthy cell line (HEK-293) were obtained from the European Collection of Cell Cultures. The cells were incubated in a humidified incubator (37 °C, 5% CO2) and cultured under standard conditions in Dulbecco’s modified Eagle medium (DMEM), 10% heat-inactivated fetal bovine serum, 100 U mL^–1 penicillin, 100 U mL^–1 streptomycin, and 4 mM L-glutamine. […] A cell culture medium was used to make further dilutions, while keeping the equivalent of DMF below 0.5% of the total volume.[94] […]
7. Cell Viability Inhibition Assay
MDA-MB-231, LNCaP, Caco-2 and HEK-293 cells (5x10^3 per well) seeded in 96-well plates to assess cell viability by the 3-[4,5-dimethylthiazol-2-yl]-2,5-diphenyltetrazolium bromide (MTT) assay for 24 h at 37°C. Then cells were treated with compound 3 at different concentrations (3-100 µM) at 100μl/well. […]
and etoposid was used as positive controls under identical conditions. After 24, 48 and 72 h incubation, 5 mg/ml MTT solution (20 μl/well) was added and cultured for another 4 h. Then, the supernatant was discarded and dimethyl sulfoxide was added (100 μl/well). The absorbance (A) was measured spectrophotometrically at 540 nm by a Microplate Reader (SpectraMax i3x).
A graph was plotted between the concentrations of the extract versus the percent viability. The […]
calculated from graph. All assays were performed in three replicates per concentration level. 11 […]

[2] = test system: Caco-2 cells; experiment: Annexin V/PI double-staining apoptosis assay (flow cytometry); format: cell-based, human; settings: 48 h
Method: calculated from graph. All assays were performed in three replicates per concentration level. 11
8. Annexin-V/PI Double-Staining Assay
Caco-2 (5x10^5 per well) were seeded in 6-well culture plates in medium and incubated for 24 h at 37°C. Then cells were either untreated or treated with the compound 3 (7.5, 15, 30 μM) for additional 48 h. The cells were harvested and resuspended in 400 μl of 1× binding buffer containing Annexin V-FITC (5 μl) and PI (5 μl), and cells were incubated for 15 min at RT (25°C) in the dark. The results were evaluated immediately through flow cytometry (BD Biosciences, San Jose, CA, USA) within 1 h using Annexin V-FITC staining kit (BD […]

[3] = molecular target: T1, BSA (bovine serum albumin) (Bos taurus, UniProt P02769); experiment: BSA UV–vis absorption; format: binding; settings: BSA 10 μM + compound 10 μM
T1 construct: purchased Merck/Sigma
T1 sequence (P02769 25-607): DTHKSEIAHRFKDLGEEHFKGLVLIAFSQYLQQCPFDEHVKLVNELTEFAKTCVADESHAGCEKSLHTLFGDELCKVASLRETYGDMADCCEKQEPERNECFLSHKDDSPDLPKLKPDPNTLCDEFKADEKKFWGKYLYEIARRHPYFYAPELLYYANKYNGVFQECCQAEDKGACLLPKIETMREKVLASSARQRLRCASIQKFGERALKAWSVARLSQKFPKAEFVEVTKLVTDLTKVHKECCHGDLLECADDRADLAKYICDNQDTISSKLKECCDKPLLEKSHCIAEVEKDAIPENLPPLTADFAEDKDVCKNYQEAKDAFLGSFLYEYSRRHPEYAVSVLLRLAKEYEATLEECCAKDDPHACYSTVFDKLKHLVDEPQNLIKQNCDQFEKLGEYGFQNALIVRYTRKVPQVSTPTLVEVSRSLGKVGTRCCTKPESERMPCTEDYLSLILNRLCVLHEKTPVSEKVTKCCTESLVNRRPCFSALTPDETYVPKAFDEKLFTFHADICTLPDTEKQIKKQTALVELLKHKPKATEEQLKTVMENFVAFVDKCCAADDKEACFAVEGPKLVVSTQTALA
Method: The BSA–compound interactions are studied by comparing the UV–vis spectra (200–400 nm) of BSA (10 μM) alone and a mixture of [BSA (10 μM) + compound 3 (10 μM)] at room temperature in 10 mM Tris-HCl buffer with a pH of 7.4.[85]

[4] = molecular target: T1, BSA (bovine serum albumin); experiment: BSA fluorescence quenching; format: binding; settings: for Kq (bimolecular quenching constant): Ksv = kqτ0, τ0 10 ns; for ΔG: van't Hoff equation from Kbin, BSA binding
Method: BSA fluorescence spectral studies of the compound and related calculations were the same as those performed for the [CT-DNA + EB] quenching method described in Section 4.5. Detailed experimental procedures and the calculations of the binding data are given in the SI. […]
The quenching efficiency of the compound was analysed using the Stern-Volmer equation.
Io/I = 1 + K sv[Q] = 1 + k qτ0[Q] […]
where I o and I are the emission intensities of CT-DNA+EB complex in the absence and each […]
addition of compound, respectively and [Q] is the concentration of quencher. The Stern-Volmer […]
(quenching) constant, K sv was determined from the slope of the linear plot of I o/I versus [Q].
To have an insight into the kinetics of the competitive binding process, the bimolecular […]
quenching rate constant, k q values were also computed using the Stern-Volmer equation. […]
where n is the number of binding sites per nucleotide. 8
Fluorescence Spectral Studies
Quenching of fluorescence emission of BSA by compound was performed in order to determine […]
its binding constant. Stock concentration of BSA (5 μM) was prepared in 10 mM Tris- HCl […]
buffer at pH = 7.4. The emission spectra of 5 μM BSA solutions in the absence and presence of […]
compound of concentration ranging from 0 to 8 μM were acquired at room temperature. The […]
emission changes were recorded in the λ em range of 300 to 450 nm, with the excitation wavelength set at 280 nm. Each spectrum was recorded after an incubation time of 10 minutes.
The quenching efficiency of the compound was calculated using the Stern-Volmer equation as discussed above. The Stern-Volmer (quenching) constant, K sv was determined from the slope of the linear plot of I o/I versus [Q]. To have an insight into the kinetics of the competitive binding process, the bimolecular quenching rate constant, k q values were also computed using the same Stern Volmer equation, where τ 0 is the average fluorescence lifetime of the BSA alone is 10 nanoseconds. 9 Scatchard plots also gave the binding constant K bin as determined from the fluorescence titration using Scatchard equation. 10 The standard Gibbs free (ΔG) of compound

[5] = test system: Caco-2 cells; experiment: MMP determination (TMRE, flow cytometry); format: cell-based, human; settings: Caco-2, 48 h, 7.5, 15, 30 μM
Method: Briefly, Caco-2 (5x10^5 per well) were seeded in 6-well plates for 24 h and either untreated or treated with a various concentrations of compound 3 (7.5, 15, 30 μM) for addional 48 h.
Following treatment, cells were harvested and were incubated with 50 nM BD PharmingenTM MitoStatus TMRE for 30 min at 37°C, 5% CO2, followed by resuspending twice with pre-warmed PBS (2000 rpm×3 min). Quantitative changes in mitochondrial membrane potential (MMP) at the early stage of cell apoptosis were measured using BD PharmingenTM MitoStatus TMRE (BD Biosciences, San Jose, CA, USA) and detected by flow cytometry (BD

O=Cc1ccc(OCc2cn(-c3ccc(Cl)c(Cl)c3)nn2)cc1O [Compound 3, 4-((1-(3,4-Dichlorophenyl)-1H-1,2,3-triazol-4-yl)methoxy)-2-hydroxybenzaldehyde]
SI HEK-293/Caco-2 ([1]; 48 h, SI = IC50 on normal cells/IC50 on cancer cells): 1.46 | SI, times higher than cisplatin ([1]; Caco-2 cells): 10 times | IC50 ([1]; Caco-2, 24 h): 31.7 ± 0.34 µM | IC50 ([1]; Caco-2, 48 h): 16.6 ± 0.27 µM | IC50 ([1]; Caco-2, 72 h): 11.77 ± 0.01 µM | percentage of apoptosis (early + late) ([2]; Caco-2, 7.5 μM): 46.09% | percentage of apoptosis (early + late) ([2]; Caco-2, 15 μM): 57.77% | percentage of apoptosis (early + late) ([2]; Caco-2, 30 μM): 70.25% | Δλ (blue shift of BSA absorption) [3]: ~1 nm | melting point: 144 to 145 °C | quenching of BSA fluorescence intensity at ∼345 nm ([4]; BSA 5 μM, compound 0 to 8 μM): 69.12% | red shift of BSA emission ([4]; BSA 5 μM, compound 0 to 8 μM): 5 nm | Ksv (Stern–Volmer quenching constant) ([4]; BSA 5 μM, compound 0–8 μM, λex 280 nm): 1.99 × 10^5 M^–1 | Kq (bimolecular quenching constant) ([4]; BSA): 1.99 × 10^13 M^–1·s^–1 | Kq (bimolecular quenching constant) ([4]; BSA, listed as compound 3): ~10^13 M^–1·s^–1 | n (number of binding sites) ([4]; Scatchard equation, BSA): 0.80 | Kd ([4]; Scatchard equation, BSA 5 μM, read-out: Kbin (binding constant) (converted)): 45.9 µM | ΔG [4]: –24.75 kJ·mol^–1 | ΔG ([4]; listed as compound 3): −24.75 kJ·mol^–1 | loss of mitochondrial membrane potential (MMP) [5]: significant increase in MMP loss

From PMC10483525, “Synthesis, Structural Investigations, DNA/BSA Interactions, Molecular Docking Studies, and Anticancer Activity of a New 1,4-Disubstituted 1,2,3-Triazole Derivative” (ACS Omega, 2023)
